{
  "source": "patent US10251902B2",
  "about": "“Pharmaceutical composition for treating or preventing neuropsychiatric disease, containing flavone-6-C-glucose derivatives as active ingredients” (priority 2013, dated 2019)",
  "key": {"[1]": {"test_system": "model of memory impairment induced by scopolamine", "experiment": "Passive avoidance test in scopolamine-induced memory impairment model", "assay_type": "in vivo, ICR mice", "details": "for Main Experiment / Passive Avoidance Learning: scopolamine 1 mg/Kg i.p.; for Main Experiment: latency 24 h after learning; for latency time extended compared to that of the control 2: main experiment, control 2 = scopolamine", "experimental": "(§1) An experiment was conducted to confirm effects of swertisin or isoorientin, and extracts of Swertia pseudochinensis or Swertia japonica containing the same prepared in Examples 1 to 3 in treating dementia by using a model of memory impairment induced by scopolamine. Detailed method follows.\n(§2) Six-week old ICR mice in about 26 g to 28 g (Orientbio Inc, Republic of Korea) were received water and feed without constraint and adapted for 5 days under an environment having about 23±1° C. of temperature, about 60±10% of humidity and 12-hour light/dark cycle (animal laboratory at College of Pharmacy, Kyung-Hee University), and then used for the experiment.\nAn apparatus for measuring passive avoidance reaction was prepared. The apparatus has 2 separated chambers (the first and second chambers) and there is a guillotine-shaped passage that connects the first chamber and the second chamber. The first chamber was maintained brightly by using a light, and the second chamber was maintained darkly. A grid was installed on the floor of the second chamber. The grid generates 0.5 mA of electric shock for 3 seconds when the laboratory animal moved into the dark chamber.\nAbout 30 minutes later, 1 mg/Kg of scopolamine, which was dissolved in distilled water, was intraperitoneally administered to the drug administration groups 1 to 4 and controls 1 and 2 (Ebert, U. et al., Eur. J. Clin. Invest., 28, pp 944-949, 1998), and 0.9% of saline solution was intraperitoneally administered to the control 3. After 30 minutes, passive avoidance learning was conducted on the drug administration groups 1-4 and controls 1-3. In detail, the mice were located in the first chamber (i.e. bright space) and the passage was open after about 20 seconds of observation time, and then latency time of the mice moving to the second chamber (i.e. dark space) was measured.\nTwenty-four hours after the passive avoidance learning, a main experiment was conducted on the drug administration groups 1-4 and controls 1-3. Latency time of the mice of each group moving their 4 legs into the dark space after 10 seconds of observation time from opening of the guillotine-shaped passage was measured up to 300 seconds. It means that the passive avoidance learning and memory are better if the latency time is longer.\nThe passive avoidance test was conducted on the drug administration groups 1-4 and controls 1-3 in the same manner as the method explained above except that swertisin, which is one of the flavone-6-C-β-D-glucose derivatives prepared in Example 3, was dissolved in 10% Tween 80 and administered to the drug administration groups 1-4 in amounts of 1.25 mg/kg, 2.5 mg/kg, 5 mg/kg and 10 mg/kg respectively.\nThe passive avoidance test was conducted on the drug administration groups 1-4 and controls 1-3 in the same manner as Experimental Example 1-1 except that isoorientin, which is one of the flavone-6-C-β-D-glucose derivatives prepared in Example 3, was dissolved in 10% Tween 80 and administered to the drug administration groups 1-4 in amounts of 1.25 mg/kg, 2.5 mg/kg, 5 mg/kg and 10 mg/kg respectively.\nThe passive avoidance test was conducted on the drug administration groups 1-3 and controls 1-3 in the same manner as Experimental Example 1-1 except that a 70% ethanol extract of Swertia japonica prepared in Example 1, was dissolved in 10% Tween and administered to the drug administration groups 1-3 in amounts of 100 mg/kg, 200 mg/kg and 400 mg/kg respectively.\nThe passive avoidance test was conducted on the drug administration groups 1-3 and controls 1-3 in the same manner as Experimental Example 1-1 except that a 70% ethanol extract of Swertia pseudochinensis prepared in Example 2, was dissolved in 10% Tween 80 and administered to the drug administration groups 1-3 in amounts of 100 mg/kg, 200 mg/kg and 400 mg/kg respectively."}, "[2]": {"test_system": "model of memory impairment induced by scopolamine", "experiment": "Y-maze test in scopolamine-treated mice", "assay_type": "in vivo, ICR mice", "details": "donepezil 5 mg/Kg (Control 1), scopolamine 1 mg/Kg i.p.", "experimental": "as §1, §2\nA Y-maze was prepared for the experiment. The Y-maze has 3 branches and each branch has 42 cm of length, 3 cm of width and 12 cm of height. Angle between any two arms is 120 degrees and the arms were made of black polyvinyl resin.\nThe mice prepared in the above 1) were separated into 5 groups (10 mice per each group) comprised of drug administration groups 1 and 2, and controls 1 to 3.\nThe swertisin prepared in Example 3 (8 mg) was dissolved in 4 mL of 10% Tween 80 (Polyoxyethylene sorbitan monooleate: Sigma, U.S.A.), and administered to the drug administration groups 1 and 2 in an amounts of 5 mg/Kg and 10 mg/Kg respectively. Meanwhile, 5 mg/Kg of donepezil was administered to the control 1, and 0.15 mL of 10% Tween 80 was administered to the controls 2 and 3 respectively.\nAbout 30 minutes later, 1 mg/Kg of scopolamine, which was dissolved in distilled water, was intraperitoneally administered to the drug administration groups 1 and 2, and controls 1 and 2 (Ebert, U. et al., Eur. J. Clin. Invest., 28, pp. 944-949, 1998), and 0.9% of saline solution was intraperitoneally administered to the control 3.\nAfter 30 minutes, mice of the drug administration groups 1 and 2, and the controls 1-3 were carefully located on each branches of the Y-maze, which was divided as A, B and C respectively, and let the mice move freely for 8 minutes, and then recorded branches where mice have entered. The entrance was recorded when the entire body (i.e. including the tail) has completely entered. It was also recorded when the mice entered again into the branch that the mice have entered before.\nOne point was scored when the mouse sequentially entered into 3 different branches (actual alternation). Alternation behavior is defined as sequentially entering into every 3 branch, and it was converted into % via Equation 1 below (Sarter, M. et al., Psychopharmacology., 94, pp. 491-495, […])."}},
  "data": [
    {"compound": "O=c1cc(-c2ccc(O)c(O)c2)oc2cc(O)c([C@@H]3O[C@H](CO)[C@@H](O)[C@H](O)[C@H]3O)c(O)c12", "note": "[isoorientin]", "values": [
      {"measurement": "Main Experiment", "setting": "[1]; Table 3, isoorientin 1.25 mg/kg, up to 300 seconds", "value": "41.00 ± 7.988", "unit": "s"},
      {"measurement": "Passive Avoidance Learning", "setting": "[1]; Table 3, isoorientin 1.25 mg/kg, latency in learning trial", "value": "43.60 ± 5.340", "unit": "s"},
      {"measurement": "Main Experiment", "setting": "[1]; Table 3, isoorientin 2.5 mg/kg, up to 300 seconds", "value": "80.90 ± 19.44", "unit": "s"},
      {"measurement": "Passive Avoidance Learning", "setting": "[1]; Table 3, isoorientin 2.5 mg/kg, latency in learning trial", "value": "40.00 ± 5.499", "unit": "s"},
      {"measurement": "Main Experiment", "setting": "[1]; Table 3, isoorientin 5 mg/kg, up to 300 seconds", "value": "119.3 ± 73.43", "unit": "s"},
      {"measurement": "Passive Avoidance Learning", "setting": "[1]; Table 3, isoorientin 5 mg/kg, latency in learning trial", "value": "35.20 ± 5.236", "unit": "s"},
      {"measurement": "Main Experiment", "setting": "[1]; Table 3, isoorientin 10 mg/kg, up to 300 seconds", "value": "102.8 ± 15.89", "unit": "s"},
      {"measurement": "Passive Avoidance Learning", "setting": "[1]; Table 3, isoorientin 10 mg/kg, latency in learning trial", "value": "26.80 ± 5.085", "unit": "s"},
      {"measurement": "latency time extended compared to that of the control 2", "setting": "[1]; isoorientin 2.5 mg/Kg", "value": "about 2 fold"},
      {"measurement": "latency time extended compared to that of the control 2", "setting": "[1]; isoorientin 5 mg/Kg", "value": "about 3 fold"},
      {"measurement": "latency time extended compared to that of the control 2", "setting": "[1]; isoorientin 10 mg/Kg", "value": "about 2.5 fold"}
    ]},
    {"compound": "COc1cc2c(cc1OC)C(=O)C(CC1CCN(Cc3ccccc3)CC1)C2", "note": "(stereo not drawn) [Donepezil, donepezil, reference compound]", "values": [
      {"measurement": "Alternation Behavior (%)", "setting": "[2]; Table 6, 8 minutes in Y-maze", "value": "61.49 ± 5.447", "unit": "%"},
      {"measurement": "Total Entry", "setting": "[2]; Table 7, total number of entry to each branch, 8 minutes", "value": "29.30 ± 4.296"},
      {"measurement": "Main Experiment", "setting": "[1]; Table 2, Control 1 (Donepezil), dose not given", "value": "138.7 ± 34.03", "unit": "s"},
      {"measurement": "Passive Avoidance Learning", "setting": "[1]; Table 2, Control 1 (Donepezil), dose not given, learning trial", "value": "25.60 ± 10.83", "unit": "s"},
      {"measurement": "Main Experiment", "setting": "[1]; Table 3, Control 1 (Donepezil), dose not given", "value": "127.8 ± 11.43", "unit": "s"},
      {"measurement": "Passive Avoidance Learning", "setting": "[1]; Table 3, Control 1 (Donepezil), dose not given, learning trial", "value": "21.30 ± 4.964", "unit": "s"},
      {"measurement": "Main Experiment", "setting": "[1]; Table 4, Control 1 (Donepezil), dose not given", "value": "169.6 ± 79.98"},
      {"measurement": "Passive Avoidance Learning", "setting": "[1]; Table 4, Control 1 (Donepezil), dose not given, learning trial", "value": "26.40 ± 16.23"},
      {"measurement": "Main Experiment", "setting": "[1]; Table 5, Control 1 (Donepezil), dose not given", "value": "159.6 ± 65.51"},
      {"measurement": "Passive Avoidance Learning", "setting": "[1]; Table 5, Control 1 (Donepezil), dose not given, learning trial", "value": "28.10 ± 19.02"}
    ]}
  ]
}
